Blank lines part the entries; values can stand above or below the compound they belong to.
Experiments:
[1] = Dye stabilization in gels: GelStar-prestained agarose gels with additives, 6 days at 45° C., intensity of a 2.5 ng DNA band; assay type: physicochemical; conditions: GelStar in gel, 6 days in the dark
Procedure: SeaKem LE agarose gels (1% w/v, BMA Inc) were cast in 1×TAPS buffer (3-(N-tris(hydroxymethyl)methylamino)-propanesulfonic acid, 40 mM) in the presence of 1×GelStar nucleic acid stain (BMA Inc) and additives indicated in Table 1. Gels were incubated in the dark for 6 days at 45° C., and tested for the detection of DNA as follows: Gels were submerged in 1×TAPS electrophoresis buffer without dye. Then DNA was electrophoresed through the gel at 20 V/cm for one hour. The intensity of a 2.5 ng DNA band was examined by transillumination at 300 nm. The stain in the gel was considered stabilized if the fluorescence intensity of the DNA was more than 80% compared to when the gel was freshly prepared with stain. […] The quality of DNA resolution in fresh gels were recorded as “Good” when the DNA band was sharp, “Fair” when the DNA band was broad, and “Poor” when the DNA band was fuzzy.

[2] = Dyes that are stabilized by the additive TPABr: t½ in 1xTAPS buffer; conditions: 1xTAPS pH 8.2, with or without 14.6 mM TPABr; transillumination at 300 nm
[3] = buffer, pH 8.2
[4] = Dye stabilization in solution: t½ of fluorescence intensity with lambda DNA; conditions: Table 3

Compound: CCCCCCCCCCCC[N+](C)(C)C.[Br-] [Dodecyltrimethylammonium bromide]
Dye stabilization at 45° C. ([1]; additive 28 mM): No

Compound: CN1CCN(c2ccc3[nH]c(-c4ccc5[nH]c(-c6ccc(O)cc6)nc5c4)nc3c2)CC1 [Hoechst 33258, Hoechst 33258 pentahydrate (bis-benzimide: BisBnz]
effect of TPABr on the stability [2]: marginal

t½ with TPABr [3]: over 100 days | t½ without TPABr [3]: 120 h | increase of half-life by tetramethylammonium hydroxide alone [4]: 4 fold
Compound: CCCN(CCCN(C)C)c1cc(/C=C2/Sc3ccccc3N2C)c2ccccc2[n+]1-c1ccccc1 [SYBR Green I]

Compound: CCCCC[N+](CCCCC)(CCCCC)CCCCC.[OH-] [TPAOH, Tetrapentylammonium hydroxide]
Dye stabilization at 45° C. ([1]; additive 7.3 mM): Yes (The stain in the gel was considered stabilized if the fluorescence intensity of the DNA was more than 80% compared to when the gel was freshly prepared with stain) | Dye stabilization at 45° C. ([1]; additive 14.6 mM): Yes (The stain in the gel was considered stabilized if the fluorescence intensity of the DNA was more than 80% compared to when the gel was freshly prepared with stain)

Compound: CCCC[N+](CCCC)(CCCC)CCCC.[OH-] [Tetrabutylammonium hydroxide (TBAOH), Tetrabutylammonium hydroxide]
Dye stabilization at 45° C. ([1]; additive 14.6 mM): Yes (The stain in the gel was considered stabilized if the fluorescence intensity of the DNA was more than 80% compared to when the gel was freshly prepared with stain)

Compound: CC[n+]1c(-c2ccccc2)c2cc(N)ccc2c2ccc(N)cc21 [ethidium bromide]
effect of TPABr on the stability [2]: marginal

Compound: Tween-20
Dye stabilization at 45° C. ([1]; additive 0.1% (v/v)): No

From US6365341B1, “Stabilization of highly sensitive nucleic acid stains in aqueous solutions” (priority 2000, dated 2002)
